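48-hour exposure; five concentrations; linearly interpolated endpoints. Abbreviation: GI50, concentration required for 50% inhibition of growth. At the TGI there is no net growth.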

From PubChem BioAssay (NCI) come the findings set out here.

Common to all, as to experiment: NCI anticancer screen, dose series, 48 h
For experiment [1], the system named is COLO 205 colon.
Experiment [2] has as its system IGROV1 ovarian.
The subject of experiment [3] is SW-620 colon.
Experiment [4] has as its system MALME-3M melanoma.
In experiment [5] the test system is MDA-MB-231 breast.
Experiment [6] deals with U251 CNS.
The test system of experiment [7] is HOP-62 NSCLC.
Experiment [8] has as its system TK-10 renal.
In experiment [9] the test system is SNB-19 CNS.
Experiment [10] concerns OVCAR-5 ovarian.

`N#C/C(=C/N1CCN(C(=O)c2ccco2)C1=S)C(=O)c1ccccc1`: the GI50 in experiment [1] is 23.2 µM; in experiment [2], 19.4 µM; in experiment [3], 5.94 µM; in experiment [4] it was 30.7 µM; in experiment [5], 13.7 µM; in experiment [6], 17 µM. For the same molecule, the values for the GI50 in experiment [7], in experiment [8] and in [9] were 22 µM, 10.5 µM and 39.7 µM, respectively. Also, the TGI was over 100 µM in experiment [1]; 70.7 µM in [2]; 38.3 µM in experiment [3]; over 100 µM in experiment [4]; 40.8 µM in [5]; over 100 µM in experiment [6]. Moreover, the TGI is 47 µM in experiment [7], 28.8 µM in experiment [8] and over 100 µM in [9].
For the molecule `O=C(COc1ccc(/C=C2\CSc3ccccc3C2=O)cc1)Nc1nccs1`, the GI50 was 18.2 µM in experiment [10]; 14.1 µM in experiment [1]; 1.38 µM in experiment [2]; 2.7 µM in [3]; 15 µM in [4]; 14.4 µM in experiment [5]. Also, the GI50 in [6] is 6.93 µM; in experiment [7], 16.3 µM; in experiment [8], 10.6 µM; in experiment [9] it was 13.4 µM. Besides, the TGI was 32.8 µM in [10]; 27.1 µM in [1]; 2.67 µM in experiment [2]; 7.12 µM in experiment [3]; 31.4 µM in experiment [4]; 35 µM in experiment [5]. Also, the TGI in experiment [6] came out at 19.5 µM; in experiment [7], 30.8 µM; in [8], 27.7 µM; in experiment [9], 26.2 µM.
Consider `N#CC(=NCCO)C1=C(O)c2ccccc2C1=O`, for which the TGI in experiment [10], in [1], in experiment [2], in experiment [3], in [4] and in experiment [5] was over 100 µM throughout. Besides, the TGI in [6], in experiment [7], in [8] and in experiment [9] was over 100 µM throughout.
On to `COc1ccc(C(=O)COc2cccc(/C=C3\Oc4ccc5ccccc5c4C3=O)c2)cc1`, for which the GI50 in experiment [10] was 12.7 µM; in [1] it was 2.45 µM; in [3] it was 1.87 µM; in experiment [4], 1.74 µM; in experiment [5] it was 11.9 µM; in [6], 6.42 µM. Besides, the GI50 in experiment [7] is 14.9 µM; in experiment [8], 12 µM; in experiment [9], 15.5 µM. Further, the TGI in experiment [10] stood at 25.3 µM; in [1], 6.94 µM; in experiment [3], 3.77 µM; in experiment [4] it was 5.51 µM; in experiment [5] it was 25.6 µM; in experiment [6] it was 19.6 µM. The TGI in [7] was 28.1 µM; in experiment [8], 24.7 µM; in [9], 29.4 µM.
`COc1cc2c3c(n(CCCN(C)C)c(=O)c2cc1OC)-c1ccccc1C3=O`: the GI50 is over 91.6 µM in experiment [10]; 1.04 µM in experiment [1]; 1.61 µM in [2]; 2.11 µM in [3]; 7.38 µM in [4]; 10.6 µM in [5]. Moreover, the GI50 in [6] was 12.2 µM; in experiment [7] it was 3.57 µM; in experiment [8] it was 38 µM; in experiment [9], 8.28 µM. Besides, the TGI in experiment [10] is over 100 µM; in experiment [1], over 100 µM; in experiment [2], over 51.7 µM; in experiment [3] it was 66 µM; in experiment [4], over 100 µM; in [5], 23.6 µM. In addition, the TGI in experiment [6] was over 55.9 µM; in experiment [7], over 89.8 µM; in [8] it was over 100 µM; in [9], over 71.3 µM.
On to `CC(C)S(=O)(=O)c1ccccc1Nc1nc(Nc2cccc(NC(=O)CN)c2)ncc1Cl`, for which the GI50 in experiment [10] is 0.183 µM; in [1], 0.0319 µM; in experiment [2], 0.263 µM; in experiment [3], 0.0394 µM; in experiment [4], 1.22 µM; in [5] it was 0.239 µM. Further, the GI50 in experiment [6] was 0.179 µM; in experiment [7], 0.112 µM; in experiment [8], 0.362 µM; in experiment [9] it was 0.251 µM. The TGI in experiment [10] turned out to be 9.27 µM; in experiment [1], 0.223 µM; in [2] it was 12.6 µM; in experiment [3] it was 4.09 µM; in experiment [4] it was 3.12 µM; in [5], 3.97 µM. Also, the TGI in [6] came out at 2.86 µM; in experiment [7], 6.13 µM; in [8], 7.86 µM; in experiment [9], 10.1 µM.
Regarding `CCc1ccccc1NC(=O)c1sc2nc3c(cc2c1N)C(=O)CCC3`, the GI50 was 1.96 µM in [10]; 0.291 µM in experiment [1]; 15.5 µM in [2]; 0.329 µM in experiment [3]; 26.2 µM in [4]; 1.49 µM in experiment [5]. The GI50 is 0.608 µM in experiment [6], 0.587 µM in experiment [7], 23.2 µM in experiment [8] and 0.801 µM in experiment [9]. Besides, the TGI was over 100 µM in experiment [10]; 1.06 µM in experiment [1]; over 100 µM in experiment [2]; over 100 µM in experiment [3]; over 100 µM in [4]; over 100 µM in [5]. Besides, the TGI in experiment [6] is 51.7 µM; in [7], over 68.5 µM; in [8] it was over 100 µM; in experiment [9], over 100 µM.
`O=C(/C=C/c1cc(CN2CCOCC2)c(O)c2ncccc12)c1cc(CN2CCOCC2)c(O)c2ncccc12`: the GI50 is 0.0585 µM in [10]; 0.0842 µM in experiment [1]; 0.0682 µM in experiment [2]; under 0.0186 µM in experiment [3]; 0.145 µM in [4]; 0.145 µM in experiment [5]. Besides, the GI50 was under 0.0172 µM in [6], 0.0335 µM in experiment [7], 0.0318 µM in experiment [8] and 0.0482 µM in experiment [9]. The TGI in experiment [10] is over 100 µM; in experiment [1], over 100 µM; in [2] it was over 66.6 µM; in experiment [3], over 100 µM; in [4], over 100 µM; in [5], over 100 µM. The TGI is 4.95 µM in experiment [6], over 39 µM in [7], over 100 µM in experiment [8] and over 100 µM in experiment [9].
